According to US20180296542A1, “IMINOSUGARS FOR IMPROVING BONE MINERAL DENSITY IN BONE DISEASE” (Saint Louis University, priority 2015, published 2018):

How the values were obtained:
[1] = test system: TNSALP-null (Akp2^−/−) mice, in vivo model of bone disease (WT, Het, KO); test: MicroCT of femur trabecular bone (Example 2)
Protocol: (§1) TNSALP-null (Akp2^−/−) mice served as an in vivo model of bone disease to analyze the effects of the iminosugar, Miglustat.
(§2) Mice were obtained, bred and genotyped as described above. Five mice of each genotype (Wild-type (WT), heterozygous (Het), and homozygous (KO)) were included in each treatment group (i.p. administration of PBS, 400 mg/kg Miglustat, and 1200 mg/kg Miglustat as described above). A total of 44 mice were analyzed (1 Akp2^−/− homozygous mouse was omitted in the PBS group). Mice were scanned using microCT and analyzed as described above. Cortical bone in the middle 20% of bone length from trochanter to distal condyles in the femur was scanned and cortical thickness and bone mineral density were obtained. Cortical thickness (Ct.Th, μm) was used as an indication of average thickness of cortical bone. Trabecular bone of the final 625 μm before the femoral growth plate was scanned.
Bone volume fraction is the ratio of the segmented bone volume to the total volume of the region of interest.
Trabecular thickness was measured as illustrated in FIG. 23. […] Trabecular separation is the mean distance between trabeculae assessed using direct 3D methods as illustrated in FIG. 25.
As depicted in FIG. 26, the trabecular number changed with Miglustat in both heterozygotes and homozygotes treated with Miglustat. As depicted in FIG. 27, structure model index (SMI) increased in homozygous AKP mice treated with Miglustat. […] SMI represents an indicator of the structure of the trabeculae. SMI will be zero for parallel plates and 3 for cylindrical rods.
Connectivity density is a measure of the degree of connectivity of trabeculae normalized by total volume.

[2] = test system: TNSALP-null (Akp2^−/−) mice (WT, KO); test: MicroCT of trabecular bone in the lumbar vertebrae (Example 2); format: in vivo
Protocol: as §1, §2
In addition to microCT analysis of femurs, microCT analysis was performed on trabecular bone in the lumbar vertebrae. […] Bone volume fraction of vertebrae is the ratio of the segmented bone volume to the total volume of the region of interest.
As depicted in FIG. 30, trabecular thickness (Tb.Th, mm) increased at 400 mg/kg of Miglustat. The profile of trabecular thickness in spine without treatment is different than femoral trabecular thickness. Trabecular thickness is the mean thickness or trabeculae assessed using direct 3D methods described above.
The profile of trabecular separation in spine is different than in femoral. Trabecular separation is the mean distance between trabeculae assessed using direct 3D methods described above.
The profile and baseline number of trabeculae in spine was different than in femoral. Trabecular number is the measure of the average number of trabeculae per unit length.
As depicted in FIG. 33, structure model index decreased in homozygote mice treated with Miglustat. […] As discussed previously, SMI is an indicator of the structure of the trabeculae. SMI will be zero for parallel plates and 3 for cylindrical rods.
As depicted in FIG. 34, the connectivity density increased after treatment of homozygotes with high doses of Miglustat. As described above, connectivity density is a measure of the degree of connectivity of trabeculae normalized by total volume.
As depicted in FIG. 35, the degree of anisotropy increased with Miglustat meaning that treatment affected the orientation of trabeculae in the bone. Degree of anisotropy defines the direction and magnitude of the preferred orientation of trabeculae and uses the ratio between the maximum and minimum radii of the mean intercept length ellipsoid.

[3] = test system: TNSALP-null (Akp2^−/−) mice (WT, Het, KO); test: Growth (percent change in weight) and toxicity in treated mice (Example 2); format: in vivo
Protocol: At the age of one month, mice were administered 100 μL injections of phosphate-buffered saline (PBS) with 0 mg/kg, 400 mg/kg, or 1200 mg/kg of Miglustat (250 mg/mL) to the peritoneal cavity for gradual diffusion of the drug. Mice were massed each day to adjust Miglustat dosages to body weight. Intraperitoneal injections (IP) continued daily for one month before mice were euthanized with CO2 at the age of two months. Mice were on a Pyridoxine Supplement Diet (“Vitamin B6 Diet”) to prevent seizures. NAPA NECTAR™ (Systems Engineering™) was provided every alternating day to prevent dehydration. Urine samples were collected once a week and blood samples were collected from cheek tissue at the beginning and end of treatment.
as §2, with “Cortical thickness (Ct.Th, μm) was used as an indication of average thickness of cortical bone. Trabecular bone of the final 625 μm before the femoral growth plate was scanned.” left out

[4] = test system: TNSALP-null (Akp2^−/−) mice (WT, Het, KO); test: X-Rays of femurs (Example 2); format: in vivo; conditions: 400 and 1200 mg/kg Miglustat, FIGS. 13A-13I
Protocol: FIGS. 13A-13I are X-Rays of femurs from Wild-type mice administered PBS (WT-PBS; FIG. 13A), Heterozygous mice administered PBS (Het-PBS; FIG. 13B), Homozygous mice administered PBS (KO-PBS; FIG. 13C), Wild-type mice administered 400 mg/kg Miglustat (WT-400 mg/kg; FIG. 13D), Heterozygous mice administered 400 mg/kg Miglustat (Het-400 mg/kg; FIG. 13E), Homozygous mice administered 400 mg/kg Miglustat (KO-400 mg/kg; FIG. 13F), Wild-type mice administered 1200 mg/kg Miglustat (WT-1200 mg/kg; FIG. 13G), Heterozygous mice administered […] Miglustat (Het-1200 mg/kg; FIG. 13H), Homozygous mice administered […] Miglustat (KO-1200 mg/kg; FIG. 13I) showing increased bone at primary ossification centers (arrowheads).
Full-body ventral and side-view x-rays were taken after euthanizing the mice. The left anatomical legs were dissected to obtain the femoral bones. Femurs were then frozen before being placed in 10% formalin the day prior to microCT scanning. […]
Mice were obtained, bred and genotyped as described above. […] A total of 44 mice were analyzed (1 Akp2^−/− homozygous mouse was omitted in the PBS group). Mice were scanned using microCT and analyzed as described above. […]

patients with Type 1 GD = conditions: cited from earlier work

SMILES: CCCCN1C[C@H](O)[C@@H](O)[C@H](O)[C@H]1CO [Miglustat, (2R,3R,4R,5S)-1-butyl-2-(hydroxymethyl)piperidine-3,4,5-triol]
- Trabecular separation (Tb.Sp), femur ([1]; FIG. 24): decrease
- Appearance of trabeculae (microCT images) ([1]; Homozygotes (KO), 400 and 1200 mg/kg, FIGS. 20A-20D): restore the appearance of narrow trabeculae
- Overall bone volume (bone volume fraction), femur ([1]; after treatment, FIG. 21): not significantly increased
- Trabecular number (Tb.N), femur ([1]; heterozygotes and homozygotes, FIG. 26): changed
- Connectivity density (Conn. D), femur ([1]; heterozygotes or homozygotes, FIG. 28): did not change
- Trabecular thickness (Tb.Th), femur ([1]; homozygotes, FIG. 22): lower
- Structure model index (SMI), femur ([1]; homozygous AKP mice, FIG. 27): increased
- Trabecular thickness (Tb.Th), lumbar vertebrae ([2]; 400 mg/kg, FIG. 30): increased
- Trabecular separation (Tb.Sp), lumbar vertebrae ([2]; FIG. 31): increased proportional to dose
- Trabecular number (Tb.N), lumbar vertebrae ([2]; FIG. 32): did not change significantly
- Degree of anisotropy (DA), lumbar vertebrae ([2]; FIG. 35): increased
- Structure model index (SMI), lumbar vertebrae ([2]; homozygote mice, FIG. 33): decreased
- Connectivity density (Conn. D), lumbar vertebrae ([2]; homozygotes, high doses, FIG. 34): increased
- Overall bone volume (bone volume fraction), lumbar vertebrae ([2]; homozygotes, FIG. 29): not significantly increased
- Toxicity ([3]; 400 mg/kg/day and 1,200 mg/kg/day delivered intraperitoneally): no toxicity was observed
- Growth as measured by percent change in weight ([3]; high doses of Miglustat, particularly notable in WT and Het mice, FIG. 12): impeded growth
- Bone at primary ossification centers (X-Rays of femurs) [4]: increased
- BMD (patients with Type 1 GD): increased
- Bone pain (patients with Type 1 GD): alleviated
